Assay results: US10821099B2, “Use of tradipitant in motion sickness” (Vanda Pharmaceuticals Inc., priority 2018, dated 2020)
Like-named read-outs stand apart in the source and are kept apart here.

How the values were obtained:
[1] = system: NK-1 agonist (GR73632)-induced foot-tapping behavior; assay: NK-1 agonist (GR73632, icv)-induced foot-tapping behavior in gerbils; assay type: in vivo, Mongolian gerbil
Protocol: Immediately after injection, animals are placed individually into isolated chambers with pressure-sensitive velocimeter platform floors (San Diego Instruments acoustic startle apparatus) that detect and quantify vibration. The San Diego Instruments “SR” DOS-based computer program is used on a PC to record the number of foot-taps over the following 6 to 10 minutes, beginning 30 seconds after the floor is lightly tapped. Raw data are converted with a Microsoft® Excel® (Microsoft® and Excel® are registered trademarks of Microsoft Corp., Redmond, Wash.) macro that determines the number of events over threshold (125) in each 250-millisecond time bin over the 5.5 minutes following onset of observation. The total number and average intensity of events over the duration is determined. Total number of taps is analyzed with one-way ANOVA and post-hoc Dunnett's test using JMP statistical software. A dose-response curve (with doses of 0.3, 1, 3 and 10 pmols, icv) is initially generated with the NK-1 agonist GR73632. […] NK-1 antagonists are tested for their ability to attenuate GR73632-induced foot tapping. NK-1 antagonists are administered (po) via oral feeding tube at doses and time points specified in each experiment. All animals receive only one dose of NK-1 antagonists in all tests. NK-1 antagonists are administered at multiple doses (at least 3; one dose per animal) and response to GR73632 is measured. NK-1 receptor antagonists are administered at multiple pre-treatment times (one administration per animal) including at 0.5, 1, 2, 4, 7, 16, and 24 hours prior to GR73632 injection. GR73632 (Peninsula Labs, CA) is dissolved in saline. Tradipitant is dissolved in 1% CMC/0.5% SLS/0.085% PVP vehicle.

[2] = system: vomiting due to motion sickness; settings: crossover study; cited from earlier work
[3] = target: T1, NK-2 receptor (Homo sapiens, UniProt P21452); assay: NK-2 receptor inhibition; assay type: binding
T1 sequence (P21452 1-398): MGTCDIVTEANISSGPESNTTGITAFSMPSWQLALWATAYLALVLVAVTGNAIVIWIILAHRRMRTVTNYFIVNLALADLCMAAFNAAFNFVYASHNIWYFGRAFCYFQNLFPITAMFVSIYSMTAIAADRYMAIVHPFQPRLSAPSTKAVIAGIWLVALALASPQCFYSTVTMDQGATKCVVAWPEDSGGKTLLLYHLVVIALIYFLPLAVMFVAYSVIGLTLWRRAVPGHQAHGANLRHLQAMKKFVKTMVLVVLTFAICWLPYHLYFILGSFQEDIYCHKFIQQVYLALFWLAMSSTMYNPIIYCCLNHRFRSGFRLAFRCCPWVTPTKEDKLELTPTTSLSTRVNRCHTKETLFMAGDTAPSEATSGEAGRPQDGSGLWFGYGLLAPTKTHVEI

[4] = target: T2, NK-1 receptor (Homo sapiens, UniProt P25103); assay: SP-induced mobilization of intracellular calcium in U373 cells; assay type: cell-based; parameters: mobilization of intracellular calcium in U373 cells; endogenous in cells; host or cells: U373 cells
T2 sequence (P25103 whole entry): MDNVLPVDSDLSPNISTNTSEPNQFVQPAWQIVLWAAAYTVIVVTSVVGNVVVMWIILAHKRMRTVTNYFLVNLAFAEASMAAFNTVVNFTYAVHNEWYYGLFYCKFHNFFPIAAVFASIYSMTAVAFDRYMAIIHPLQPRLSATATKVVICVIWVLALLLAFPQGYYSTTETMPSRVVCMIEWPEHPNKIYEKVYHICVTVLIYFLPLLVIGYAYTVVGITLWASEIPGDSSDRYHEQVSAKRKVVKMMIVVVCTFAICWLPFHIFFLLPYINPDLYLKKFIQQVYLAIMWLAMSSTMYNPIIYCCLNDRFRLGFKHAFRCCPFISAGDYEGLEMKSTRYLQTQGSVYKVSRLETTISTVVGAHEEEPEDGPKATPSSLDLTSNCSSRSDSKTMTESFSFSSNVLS

[5] = target: T3, NK-3 receptor (Homo sapiens, UniProt P29371); assay: NK-3 receptor inhibition; assay type: binding
T3 sequence (P29371 1-465): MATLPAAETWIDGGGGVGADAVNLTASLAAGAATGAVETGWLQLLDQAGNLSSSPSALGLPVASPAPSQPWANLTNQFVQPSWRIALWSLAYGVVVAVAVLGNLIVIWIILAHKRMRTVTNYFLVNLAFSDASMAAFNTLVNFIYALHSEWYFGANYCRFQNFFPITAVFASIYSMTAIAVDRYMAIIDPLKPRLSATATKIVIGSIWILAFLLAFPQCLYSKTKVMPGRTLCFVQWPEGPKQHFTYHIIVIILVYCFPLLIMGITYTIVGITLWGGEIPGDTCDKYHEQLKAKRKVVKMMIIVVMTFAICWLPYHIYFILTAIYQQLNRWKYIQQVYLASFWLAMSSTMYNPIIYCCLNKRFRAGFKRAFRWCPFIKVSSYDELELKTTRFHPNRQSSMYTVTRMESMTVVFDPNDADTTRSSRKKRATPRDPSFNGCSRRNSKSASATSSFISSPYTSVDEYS

[6] = system: panel of 74 other receptors, enzymes, and ion channels; assay: Binding panel of 74 other receptors, enzymes and ion channels
[7] = system: NK-1 agonist (GR73632)-induced vocalization; assay: GR73632-induced vocalization in guinea pigs; assay type: in vivo, guinea pig
Protocol: Male Dunkin/Hartley guinea pigs (200 to 250 grams) are orally administered either vehicle or an NK-1 antagonist. Approximately 45 minutes later (for dose response studies), the animals are anesthetized and 0.1 nmol of GR73632 (SP analog) in a vehicle volume of 5 μl is injected into the cerebral ventricle at the intersection of bregma and the midline of the skull. Animals are placed in a dark testing chamber located inside of a sound attenuation cubicle and vocalizations are recorded for 30 minutes following recovery from anesthesia. The time spent vocalizing is quantified for each animal. In the duration of action study, 0.1 mg/kg of tradipitant or vehicle solution is administered orally and then 2, 4, or 7 hours later, 0.1 nmol of GR73632 is administered into the cerebral ventricle as described above. Vocalizations are recorded and quantified as indicated above. Vehicle solutions are either CMC (FIG. 4 data) or an ethanol/emulphor solution (FIGS. 5 and 6). Data is analyzed using one-tailed t-tests.

[8] = Plasma concentration of tradipitant 2 hours post-dose in dogs; assay type: in vivo; settings: male, beagle, dog, oral, read-out: Concentration of tradipitant in plasma, Mean (SD)
Protocol: (§1) All animals are dosed over a period of five (5) weeks, with each dog receiving one of five different treatments on each day of dosing. […] In cases where apomorphine is administered alone, without prior treatment with tradipitant or aprepitant, apomorphine is given at approximately the same time as when given in combination with tradipitant or aprepitant.

[9] = target: T2, NK-1 receptor; assay: [125I] substance P binding to the NK-1 receptor, IM-9 human cell membrane binding; parameters: NK-1 receptor expressed by IM-9 cells; endogenous in cells; host or cells: IM-9 human cells (membranes); settings: Table 1
[10] = system: apomorphine-induced emesis; assay: Emetic challenge study (apomorphine-induced emesis) in beagle dogs; assay type: in vivo, beagle dog; settings: each dose tested (0.3, 1.0, and 3.0 mg/kg)
Protocol: Each animal is administered a different dose on a particular dosing day, so that each dose of tradipitant, aprepitant, and apomorphine alone is represented. Over the five (5) weeks of the study, each animal receives each of the treatments, but only one per week. The purpose of this study is to determine if tradipitant suppresses apomorphine-induced emesis.
as §1
All dogs are fasted overnight prior to each treatment day and then fed approximately one (1) hour after oral dosing (approximately one (1) hour prior to administration of apomorphine). Individual doses are adjusted weekly for changes in body weight.
The dose regimen consists of a 5×5 Latin square design, in which each subject receives 1 dose or dose combination per week (6 day washout) as shown in Table 3 below.

Compound: C[C@@H](O[C@H]1OCCN(Cc2n[nH]c(=O)[nH]2)[C@H]1c1ccc(F)cc1)c1cc(C(F)(F)F)cc(C(F)(F)F)c1 [Aprepitant, reference compound]
- time after administration up to which foot-tapping is inhibited ([1]; 1 mg/kg): up to 24 hours

Compound: COc1ccc(C(C)(C)C)cc1CN[C@H]1C2CCN(CC2)[C@H]1C(c1ccccc1)c1ccccc1 [Maropitant]
- dogs in which the occurrence of vomiting was reduced as compared to placebo [2]: over 75%

Compound: O=C(c1ccccc1Cl)c1cccnc1-c1nnn(Cc2cc(C(F)(F)F)cc(C(F)(F)F)c2)c1-c1ccncc1 [Tradipitant, {2-[1-(3,5-bistrifluoromethylbenzyl)-5-pyridin-4-yl-1H-[1,2,3]triazol-4-yl]-pyridin-3-yl}-(2-chlorophenyl)-methanone]
- inhibition at the NK-2 receptor [3]: no significant inhibition
- Kb [4]: 0.095 nM
- time after administration up to which foot-tapping is significantly inhibited ([1]; 0.1 mg/kg, po): up to 7 hours
- effect on foot-tapping by 16 hours after administration ([1]; 0.1 mg/kg, po, 16 hours): significantly diminished
- inhibition at 1 mg/kg ([1]; Meriones unguiculatus, po, 1 mg/kg, 16 hours after administration): > 50%
- ED50 ([1]; Meriones unguiculatus, oral, 2 hours after administration, GR73632 3 pmol icv, read-out: ED50, inhibition of foot-tapping behavior): 0.03 ± 0.004 mg/kg
- inhibition at the NK-3 receptor [5]: no significant inhibition
- activity in panel of 74 additional receptors, enzymes, and ion channels including NK-2 and NK-3 receptors [6]: No significant activity
- inhibition of binding ([6]; test concentration of 1 μM): ≤ 50%
- suppression of agonist-induced vocalization at 7 hours ([7]; 0.1 mg/kg oral, 7 hours after administration): significantly active
- duration of activity ([7]; administered orally): exceeds 7 hours
- inhibitory activity on vocalization at and below 0.1 mg/kg ([7]; at and below 0.1 mg/kg oral, FIG. 6): retains significant inhibitory activity
- inhibition of agonist-induced vocalization ([7]; oral doses of 10, 1.0, 0.1 and 0.05 mg/kg (each p<0.001), FIG. 4): significant inhibition
- minimum effective dose (MED), inhibition of vocalization ([7]; oral, p<0.001 compared to controls): 0.025 mg/kg
- concentration at 2 h ([8]; 0.3 mg/kg, 0.3 mg/kg oral): 57.9 ng/mL
- concentration at 2 h ([8]; 1 mg/kg, 1.0 mg/kg oral): 133 ng/mL
- concentration at 2 h ([8]; 3 mg/kg, 3.0 mg/kg oral): 300 ng/mL
- Ki [9]: 0.062 nM
- efficacy against apomorphine-induced emesis [10]: effective against apomorphine-induced emesis
